Measured values from ChEMBL document CHEMBL3763078, “Cytotoxicity and apoptotic activity of novel organobismuth(V) and organoantimony(V) complexes in different cancer cell lines” (Eur J Med Chem, 2016).

Assays:
L929 = experiment: Cytotoxicity against mouse L929 cells assessed as cell viability after 72 hrs by MTT assay; format: cell-based
K562 [1] = experiment: Cytotoxicity against human K562 cells assessed as cell viability after 72 hrs by tryphan blue assay; format: functional, cell-based
[2] = Cytotoxicity against mouse Melan-a cells assessed as cell viability after 72 hrs by MTT assay; format: cell-based
[3] = Cytotoxicity against mouse B16F10 cells assessed as cell viability after 72 hrs by MTT assay; format: functional, cell-based, B16-F10
K562 [4] = experiment: Selectivity index, ratio of IC50 for mouse Melan-a cells to IC50 for human K562 cells; format: functional
B16-F10 [5] = experiment: Selectivity index, ratio of IC50 for mouse Melan-a cells to IC50 for mouse B16F10 cells; format: functional
B16-F10 [6] = experiment: Selectivity index, ratio of IC50 for mouse L929 cells to IC50 for mouse B16F10 cells; format: functional
K562 [7] = experiment: Selectivity index, ratio of IC50 for mouse L929 cells to IC50 for human K562 cells; format: functional
HL-60 [8] = experiment: Induction of apoptosis in human HL60 cells assessed as increase in sub-diploid DNA content at 0.44 uM after 12 hrs by propidium iodide staining-based flow cytometric analysis relative to control; format: functional, cell-based
HL-60 [9] = experiment: Induction of apoptosis in human HL60 cells assessed as increase in sub-diploid DNA content at 0.44 uM after 6 hrs by propidium iodide staining-based flow cytometric analysis relative to control; format: functional, cell-based
B16-F10 [10] = experiment: Induction of apoptosis in mouse B16F10 cells at 0.1 uM after 48 hrs by annexin V-FITC/propidium iodide staining-based flow cytometric analysis relative to control; format: functional
B16-F10 [11] = experiment: Induction of apoptosis in mouse B16F10 cells assessed as viable cells at 0.1 uM after 48 hrs by annexin V-FITC/propidium iodide staining-based flow cytometric analysis (reference value: 98.4%); format: functional; conditions: B16-F10, 48 h, read-out: Activity
B16-F10 [12] = experiment: Induction of apoptosis in mouse B16F10 cells assessed as dead cells at 0.1 uM after 48 hrs by annexin V-FITC/propidium iodide staining-based flow cytometric analysis (reference value: 1.11%); format: functional
B16-F10 [13] = experiment: Induction of apoptosis in mouse B16F10 cells assessed as early apoptotic cells at 0.1 uM after 48 hrs by annexin V-FITC/propidium iodide staining-based flow cytometric analysis (reference value: 0.087%); format: functional
B16-F10 [14] = experiment: Induction of apoptosis in mouse B16F10 cells assessed as late apoptotic cells at 0.1 uM after 48 hrs by annexin V-FITC/propidium iodide staining-based flow cytometric analysis (reference value: 0.450%); format: functional
B16-F10 [15] = experiment: Induction of apoptosis in mouse B16F10 cells assessed as dead cells at 10 uM after 48 hrs by annexin V-FITC/propidium iodide staining-based flow cytometric analysis (reference value: 1.11%); format: functional, cell-based
B16-F10 [16] = experiment: Induction of apoptosis in mouse B16F10 cells assessed as increase in sub-diploid DNA content at 100 uM after 24 hrs by propidium iodide staining-based flow cytometric analysis relative to control; format: functional, cell-based
B16-F10 [17] = experiment: Induction of apoptosis in mouse B16F10 cells assessed as increase in sub-diploid DNA content at 10 uM after 48 hrs by propidium iodide staining-based flow cytometric analysis relative to control; format: functional, cell-based
B16-F10 [18] = experiment: Induction of apoptosis in mouse B16F10 cells assessed as viable cells at 10 uM after 48 hrs by annexin V-FITC/propidium iodide staining-based flow cytometric analysis (reference value: 98.4%); format: functional, cell-based
B16-F10 [19] = experiment: Induction of apoptosis in mouse B16F10 cells assessed as early apoptotic cells at 100 uM after 48 hrs by annexin V-FITC/propidium iodide staining-based flow cytometric analysis (reference value: 0.087%); format: functional, cell-based
B16-F10 [20] = experiment: Induction of apoptosis in mouse B16F10 cells assessed as viable cells at 1 uM after 48 hrs by annexin V-FITC/propidium iodide staining-based flow cytometric analysis (reference value: 98.4%); format: functional, cell-based
B16-F10 [21] = experiment: Induction of apoptosis in mouse B16F10 cells assessed as increase in sub-diploid DNA content at 10 uM after 24 hrs by propidium iodide staining-based flow cytometric analysis relative to control; format: functional, cell-based
B16-F10 [22] = experiment: Induction of apoptosis in mouse B16F10 cells at 10 uM after 48 hrs by annexin V-FITC/propidium iodide staining-based flow cytometric analysis relative to control; format: functional, cell-based
B16-F10 [23] = experiment: Induction of apoptosis in mouse B16F10 cells at 1 to 100 uM after 48 hrs by annexin V-FITC/propidium iodide staining-based flow cytometric analysis relative to staurosporine; format: functional, cell-based
B16-F10 [24] = experiment: Induction of apoptosis in mouse B16F10 cells assessed as viable cells at 100 uM after 48 hrs by annexin V-FITC/propidium iodide staining-based flow cytometric analysis (reference value: 98.4%); format: functional, cell-based
B16-F10 [25] = experiment: Induction of apoptosis in mouse B16F10 cells assessed as early apoptotic cells at 10 uM after 48 hrs by annexin V-FITC/propidium iodide staining-based flow cytometric analysis (reference value: 0.087%); format: functional, cell-based
B16-F10 [26] = experiment: Induction of apoptosis in mouse B16F10 cells assessed as increase in sub-diploid DNA content at 10 uM after 24 hrs by propidium iodide staining-based flow cytometric analysis relative to staurosporin; format: functional, cell-based
B16-F10 [27] = experiment: Induction of apoptosis in mouse B16F10 cells assessed as increase in sub-diploid DNA content at 100 uM after 24 hrs by propidium iodide staining-based flow cytometric analysis relative to staurosporin; format: functional, cell-based
B16-F10 [28] = experiment: Induction of apoptosis in mouse B16F10 cells at 100 uM after 48 hrs by annexin V-FITC/propidium iodide staining-based flow cytometric analysis relative to control; format: functional, cell-based
B16-F10 [29] = experiment: Induction of apoptosis in mouse B16F10 cells at 1 uM after 48 hrs by annexin V-FITC/propidium iodide staining-based flow cytometric analysis relative to control; format: functional, cell-based
B16-F10 [30] = experiment: Induction of apoptosis in mouse B16F10 cells assessed as increase in sub-diploid DNA content at 100 uM after 48 hrs by propidium iodide staining-based flow cytometric analysis relative to control; format: functional, cell-based
B16-F10 [31] = experiment: Induction of apoptosis in mouse B16F10 cells assessed as early apoptotic cells at 1 uM after 48 hrs by annexin V-FITC/propidium iodide staining-based flow cytometric analysis (reference value: 0.087%); format: functional, cell-based
B16-F10 [32] = experiment: Induction of apoptosis in mouse B16F10 cells assessed as dead cells at 100 uM after 48 hrs by annexin V-FITC/propidium iodide staining-based flow cytometric analysis (reference value: 1.11%); format: functional, cell-based
B16-F10 [33] = experiment: Induction of apoptosis in mouse B16F10 cells assessed as late apoptotic cells at 1 uM after 48 hrs by annexin V-FITC/propidium iodide staining-based flow cytometric analysis (reference value: 0.450%); format: functional, cell-based
B16-F10 [34] = experiment: Induction of apoptosis in mouse B16F10 cells assessed as late apoptotic cells at 10 uM after 48 hrs by annexin V-FITC/propidium iodide staining-based flow cytometric analysis (reference value: 0.450%); format: functional, cell-based
B16-F10 [35] = experiment: Induction of apoptosis in mouse B16F10 cells assessed as dead cells at 1 uM after 48 hrs by annexin V-FITC/propidium iodide staining-based flow cytometric analysis (reference value: 1.11%); format: functional, cell-based
B16-F10 [36] = experiment: Induction of apoptosis in mouse B16F10 cells assessed as late apoptotic cells at 100 uM after 48 hrs by annexin V-FITC/propidium iodide staining-based flow cytometric analysis (reference value: 0.450%); format: functional, cell-based
[37] = Induction of apoptosis in mouse thymocytes at 30 uM after 3 hrs by annexin V-FITC/ethidium bromide staining-based flow cytometric analysis relative to control; format: cell-based; conditions: thymocyte

DICHLOROTRIPHENYLBISMUTHANE
IC50 (L929; l929): 154 µM
IC50 (K562 [1]; k562): 31.1 µM
IC50 ([2]; melan-a): 130 µM
IC50 ([3]; b16-f10): 19.2 µM

CC(=O)c1ccc(O)c(C(=O)O)c1
IC50 (L929; Mus musculus, L929, 72 h): 306 µM
Ratio IC50 (K562 [4]): <1
Ratio IC50 (B16-F10 [5]): <1
IC50 ([3]; Mus musculus, B16-F10, 72 h): 4880 µM
Ratio IC50 (B16-F10 [6]): <1
Ratio IC50 (K562 [7]): <1

Bi-chlorodibenzo[c,f][1,5]thiabismocine
Activity (HL-60 [8]): 80%
fold change (FC) (HL-60 [9]): 13

triphenylantimony(V) dichloride
Ratio IC50 (K562 [4]): 2.6
Ratio IC50 (B16-F10 [5]): 6.7
Ratio IC50 (B16-F10 [6]): 1.9
Ratio IC50 (K562 [7]): 2.6

[sequence]
Ratio IC50 (K562 [4]): 4.1
Ratio IC50 (B16-F10 [5]): 6.7
Ratio IC50 (B16-F10 [6]): 8
Ratio IC50 (K562 [7]): 5

Bis-(4-acetylbenzoato)triphenylbismuth(V)
Ratio IC50 (K562 [4]): 7.4
Ratio IC50 (B16-F10 [5]): 12.7
Ratio IC50 (B16-F10 [6]): 1.8
Ratio IC50 (K562 [7]): 1

CN[C@@H]1C[C@H]2O[C@@](C)([C@@H]1OC)n1c3ccccc3c3c4c(c5c6ccccc6n2c5c31)C(=O)NC4 [STAUROSPORINE]
fold change (FC) (B16-F10 [10]): 21
viability at 0.1 µM (B16-F10 [11]): 33.9%
Activity (B16-F10 [12]): 22.2%
Activity (B16-F10 [13]): 0.461%
Activity (B16-F10 [14]): 43.5%

Bis-(2-acetylbenzoato)triphenylbismuth(V)
Activity (B16-F10 [15]): 10.7%
fold change (FC) (B16-F10 [16]): 70
fold change (FC) (B16-F10 [17]): 129
Activity (B16-F10 [18]): 5.22%
Activity (B16-F10 [19]): 1.25%
Ratio IC50 (K562 [4]): 52.4
Ratio IC50 (B16-F10 [5]): 13
Activity (B16-F10 [20]): 66.1%
fold change (FC) (B16-F10 [21]): 18
fold change (FC) (B16-F10 [22]): 33
Ratio IC50 (B16-F10 [6]): 6.1
fold change (FC) (B16-F10 [23]): 1.5
Activity (B16-F10 [24]): 1.57%
Activity (B16-F10 [25]): 6.81%
fold change (FC) (B16-F10 [26]): 18
Ratio IC50 (K562 [7]): 24.6
fold change (FC) (B16-F10 [27]): 70
fold change (FC) (B16-F10 [28]): 34
fold change (FC) (B16-F10 [29]): 8
fold change (FC) (B16-F10 [30]): 256
Activity (B16-F10 [31]): 15.4%
Activity (B16-F10 [32]): 7.1%
Activity (B16-F10 [33]): 14.6%
Activity (B16-F10 [34]): 77.3%
Activity (B16-F10 [35]): 3.89%
Activity (B16-F10 [36]): 90.1%

CC(=O)c1ccc(C(=O)O)cc1
IC50 (L929; Mus musculus, L929, 72 h): 331 µM
IC50 (K562 [1]; Homo sapiens, K562, 72 h): < 1000 µM
Ratio IC50 (K562 [4]): <1
Ratio IC50 (B16-F10 [5]): <1
IC50 ([3]; Mus musculus, B16-F10, 72 h): 176 µM
Ratio IC50 (B16-F10 [6]): 1.8
Ratio IC50 (K562 [7]): <1

Bis-(5-acetylsalicylato)triphenylantimony(V) chloroform solvate
Ratio IC50 (K562 [4]): 5.6
Ratio IC50 (B16-F10 [5]): 1.6
Ratio IC50 (B16-F10 [6]): 2.2
Ratio IC50 (K562 [7]): 7.9

bis-(4-acetylbenzoato)triphenylantimony(V)
Ratio IC50 (K562 [4]): 7.2
Ratio IC50 (B16-F10 [5]): 6.6
Ratio IC50 (B16-F10 [6]): 3.1
Ratio IC50 (K562 [7]): 3.4

CC(=O)c1ccccc1C(=O)O
IC50 (L929; Mus musculus, L929, 72 h): 474 µM
IC50 (K562 [1]; Homo sapiens, K562, 72 h): 502 µM
Ratio IC50 (K562 [4]): 1.5
Ratio IC50 (B16-F10 [5]): <1
IC50 ([2]; Mus musculus, Melan-a, 72 h): 775 µM
IC50 ([3]; Mus musculus, B16-F10, 72 h): 852 µM
Ratio IC50 (B16-F10 [6]): <1
Ratio IC50 (K562 [7]): <1

TRIPHENYLBISMUTHINE
fold change (FC) [37]: 5
